Assay results taken from US9056842B2, “Cosmetic use of substituted amino heterocylic carbamoyl analogs and related compounds” (Avon Products, Inc., priority 2011, dated 2015).

System: Human dermal fibroblasts
Assay: Stimulation of collagen synthesis, procollagen type I C-peptide (PIP) EIA on conditioned medium
Format: cell-based
Conditions: compound at 0.0005% in DMSO, triplicate, 48-hour incubation; increase in collagen over the DMSO control
Experimental: Human dermal fibroblasts (Cascade Biologics, Portland, Oreg.) were plated at 10,000 cells/well in 96-well culture plates in supplemented medium (DMEM, 10% Fetal Bovine Serum, 1% Penicillin/Streptomycin and 1% L-Glutamine) overnight in humidified atmosphere of 10% CO2 at 37° C. […] DMSO solution was used a control. Following 48-hour incubation, the plates were removed from the incubator and the medium from each well was collected for the procollagen assay. Collagen production was measured using procollagen type I C-peptide (PIP) EIA kit (Takara Bio, Inc., Japan). […] The ELISA plate was incubated at 37° C. for 3 hours before the wells were washed four times with 400 μl of 1×PBS. At the end of wash, 100 μl of substrate solution (supplied with kit) was added to the wells and incubated at room temperature for 15 minutes. The reaction was stopped by adding 100 μl of 1N sulfuric acid to the wells. The absorbance was measured on a spectrophotometer at 450 nm wavelength. The amount of procollagen peptide in the conditioned medium was calculated from the standard curve. The stimulation of collagen production was shown as an increase in collagen over the control.

## CCOCCCNC(=O)c1coc(CN(CCCOCC)C(=O)c2cccc(Br)c2)n1 [Compound 1]
  % Collagen Stimulation: 68.77%

## CCOCCCNC(=O)c1coc(CN(CCCOCC)C(=O)c2ccc(Cl)cc2)n1 [Compound 2]
  % Collagen Stimulation: 67.86%
